The test system of one data set is HeLa. The data set is described as follows: Antiproliferative activity against human HeLa cells by SRB assay. Type of data set: functional, cell-based. In general terms: The SRB assay estimates cell density from bound dye.
Data set [1] in a line: Half life in phosphate buffer saline. It counts as physicochemical. Particulars: phosphate buffered saline.

pIC50: −log10 of the molar value.

Broadly, the pIC50 is the IC50 on a negative log10 scale, so that one unit is a factor of ten. The low end stands for a high IC50, the high end for a low IC50. In general, half-life refers to the time in which the quantity being followed falls by half. Low values mean fast loss, high ones slow loss.

Regarding `CC(=O)O[C@@H]1[C@H]2[C@@H]3C(=O)C(O)=C4C[C@@H]5O[C@@H]5[C@H](OC(C)=O)[C@]4(C)[C@H]3[C@H](OC(C)=O)[C@H](OC(C)=O)[C@]2(C)[C@@H]2[C@@H]1[C@]1(C)C(=C[C@H]2C)OC(=O)[C@@]1(C)O`, the negative logarithm of the IC50 (pIC50) with HeLa is 5.47.
Still for that read-out and setting: the result for `CC(=O)O[C@H]1[C@@H]2[C@H]([C@H](C)C=C3OC(=O)[C@@](C)(O)[C@@]32C)[C@]2(C)[C@@H]1C1=C(O)C(=O)[C@H]3C[C@@H]4O[C@@H]4[C@H](OC(C)=O)[C@]3(C)[C@H]1[C@H](OC(C)=O)[C@@H]2OC(C)=O` reads 6.14.
Take `CC(=O)O[C@@H]1[C@H]2[C@H]3[C@H]([C@H](OC(C)=O)[C@H](OC(C)=O)[C@]2(C)[C@H]2[C@H](C)[C@@H]4O[C@@]45OC(=O)[C@@](C)(O)[C@]5(C)[C@H]12)[C@]1(C)[C@H](C[C@@H]2O[C@@H]2[C@@H]1OC(C)=O)C(=O)[C@@H]3O`: the half-life in data set [1] was 9 h.
Turning to `CC(=O)O[C@@H]1[C@H]2[C@H]3[C@H]([C@H](OC(C)=O)[C@H](OC(C)=O)[C@]2(C)[C@@H]2[C@@H]1[C@]1(C)C(=C[C@H]2C)OC(=O)[C@@]1(C)O)[C@]1(C)[C@H](C[C@@H]2O[C@@H]2[C@@H]1OC(C)=O)C(=O)C3(O)O`, the negative-log IC50 (pIC50) in the data set with HeLa was 5.30.
In the data set on HeLa, `CC(=O)O[C@@H]1[C@H]2[C@H]3[C@H]([C@H](OC(C)=O)[C@H](OC(C)=O)[C@]2(C)[C@@H]2[C@@H]1[C@]1(C)C(=C[C@@]2(C)OO)OC(=O)[C@@]1(C)O)[C@]1(C)[C@H](C[C@@H]2O[C@@H]2[C@@H]1OC(C)=O)C(=O)[C@@H]3O` gave a pIC50 of less than 4.30.

For the origin of these results see ChEMBL document CHEMBL3351965, “Taccalonolide microtubule stabilizers” (Bioorg Med Chem, 2014).
